Reference: patent publication US9409865B2, “Modulators of methyl modifying enzymes, compositions and uses thereof” (Constellation Pharmaceuticals, Inc., priority 2011, dated 2016)
pIC50: −log10 of the molar value.

Experiments:
Y641N EZH2 = Y641N EZH2 (Homo sapiens, UniProt Q15910, Y641N); experiment: Y641N EZH2 assay (as the EZH2 assay, with H3K27Me2 oligonucleosomes as substrate); assay type: biochemical; details: Y641N EZH2 mutant, reconstituted H3K27Me2 oligonucleosomes as substrate; top concentration 80 μM
Chain of Y641N EZH2 (Q15910 whole entry Y641N): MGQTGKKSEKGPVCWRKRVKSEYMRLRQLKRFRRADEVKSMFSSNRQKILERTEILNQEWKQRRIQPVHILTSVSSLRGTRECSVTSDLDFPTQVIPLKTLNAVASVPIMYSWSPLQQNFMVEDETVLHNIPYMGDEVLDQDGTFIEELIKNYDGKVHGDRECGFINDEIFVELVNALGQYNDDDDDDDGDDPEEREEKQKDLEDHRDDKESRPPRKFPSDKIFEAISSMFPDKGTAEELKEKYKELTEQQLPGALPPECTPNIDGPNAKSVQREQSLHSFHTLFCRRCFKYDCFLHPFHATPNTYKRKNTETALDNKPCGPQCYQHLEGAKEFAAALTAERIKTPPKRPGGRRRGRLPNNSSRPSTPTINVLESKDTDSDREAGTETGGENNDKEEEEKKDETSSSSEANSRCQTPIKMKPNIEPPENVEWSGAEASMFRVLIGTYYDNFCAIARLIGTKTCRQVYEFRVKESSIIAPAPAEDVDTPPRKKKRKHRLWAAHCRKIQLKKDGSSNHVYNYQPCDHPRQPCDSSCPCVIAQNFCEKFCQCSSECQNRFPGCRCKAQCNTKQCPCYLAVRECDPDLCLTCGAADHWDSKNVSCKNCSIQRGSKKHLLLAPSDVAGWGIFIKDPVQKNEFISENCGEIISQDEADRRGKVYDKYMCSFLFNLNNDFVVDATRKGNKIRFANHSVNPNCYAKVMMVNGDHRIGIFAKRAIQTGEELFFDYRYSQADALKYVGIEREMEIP
Chain of Y641N EZH2 (O75530 whole entry partner): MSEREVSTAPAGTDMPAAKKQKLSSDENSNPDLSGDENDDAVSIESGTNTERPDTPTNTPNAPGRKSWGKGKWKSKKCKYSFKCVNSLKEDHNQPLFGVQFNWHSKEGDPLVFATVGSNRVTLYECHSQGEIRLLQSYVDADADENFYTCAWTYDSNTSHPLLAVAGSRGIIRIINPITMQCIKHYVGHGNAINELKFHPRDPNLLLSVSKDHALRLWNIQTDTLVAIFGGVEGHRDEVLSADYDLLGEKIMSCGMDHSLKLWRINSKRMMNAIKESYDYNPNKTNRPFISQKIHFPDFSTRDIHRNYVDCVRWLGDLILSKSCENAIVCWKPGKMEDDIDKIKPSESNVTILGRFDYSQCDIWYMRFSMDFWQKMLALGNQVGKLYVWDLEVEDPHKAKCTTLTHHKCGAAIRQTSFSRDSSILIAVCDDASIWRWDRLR
Chain of Y641N EZH2 (Q15022 whole entry partner): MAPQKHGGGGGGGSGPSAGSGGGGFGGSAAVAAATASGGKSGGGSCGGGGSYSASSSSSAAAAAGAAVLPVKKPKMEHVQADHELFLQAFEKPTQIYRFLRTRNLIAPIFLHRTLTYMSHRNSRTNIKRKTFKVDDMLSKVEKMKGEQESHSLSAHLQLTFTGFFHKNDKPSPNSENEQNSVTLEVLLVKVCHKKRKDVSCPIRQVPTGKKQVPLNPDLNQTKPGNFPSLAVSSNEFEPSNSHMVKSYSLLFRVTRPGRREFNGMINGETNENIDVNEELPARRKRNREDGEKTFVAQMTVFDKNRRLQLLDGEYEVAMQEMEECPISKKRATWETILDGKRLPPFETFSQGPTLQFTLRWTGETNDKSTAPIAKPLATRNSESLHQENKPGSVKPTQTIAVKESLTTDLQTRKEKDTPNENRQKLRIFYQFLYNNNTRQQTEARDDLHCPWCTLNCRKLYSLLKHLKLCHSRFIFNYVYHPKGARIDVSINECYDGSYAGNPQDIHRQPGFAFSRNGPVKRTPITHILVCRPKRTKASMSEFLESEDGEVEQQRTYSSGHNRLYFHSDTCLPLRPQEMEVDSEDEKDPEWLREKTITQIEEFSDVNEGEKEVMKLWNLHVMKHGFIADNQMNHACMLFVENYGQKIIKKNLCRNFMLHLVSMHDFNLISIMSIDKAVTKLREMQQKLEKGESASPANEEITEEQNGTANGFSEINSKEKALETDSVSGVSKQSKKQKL
Procedure: (§1) Assays were carried out by mixing rPRC2 together with biotinylated oligonucleosome substrates in the presence of the radio-labeled enzyme co-factor, S-adenosyl-L-methionine (^3H SAM) (Perkin Elmer) and monitoring the enzymatically mediated transfer of tritiated methyl groups from ^3H SAM to histone lysine residues. The amount of resulting tritiated methylhistone product was measured by first capturing the biotinylated oligonucleosomes in streptavidin (SAV) coated FlashPlates (Perkin Elmer), followed by a wash step to remove un-reacted ^3H SAM, and then counting on a TopCount NXT 384 well plate scintillation counter (Perkin Elmer). The final assay conditions for EZH2 were as follows: 50 mM Tris Buffer pH 8.5, 1 mM DTT, 69 μM Brij-35 detergent, 5.0 mM MgCl2, 0.1 mg/mL BSA, 0.2 μM ^3H SAM, 0.2 μM biotinylated oligonucleosomes, 3.6 μM H3K27me3 peptide and 2 nM EZH2.
(§2) Ten point dose response curves were generated by dispensing varying amounts of the 10 mM compound solution in 10 wells of the 384 well plate (Echo; Labcyte), pure DMSO was then used to backfill the wells to insure all wells have the same amount of DMSO. A 12.5 μL volume of the HMT enzyme, H3K27me3 peptide and oligonucleosome substrate in assay buffer was added to each well of the assay plate using a Multidrop Combi (ThermoFisher). Compounds were pre-incubated with the enzyme for 20 min, followed by initiation of the methyltransferase reaction by addition of 12.5 μL of 3H SAM in assay buffer (final volume=25 μL). The final concentrations of compounds ranged from a top default concentration of 80 μM down to 0.16 μM in ten 2-fold dilution steps. Reactions were carried out for 60 minutes and quenched with 20 μL per well of 1.96 mM SAH, 50 mM Tris PH 8.5, 200 mM EDTA. Stopped reactions were transferred to SAV coated Flashplates (Perkin Elmer), incubated for 120 min, washed with a plate washer, and then read on the TopCount NXT (1.0 min/well) to measure the amount of methylhistone product formed during the reaction.
Assay for Y641N EZH2 was performed as above using reconstituted H3K27Me2 oligonucleosomes as substrate.

EZH2 = EZH2 (Homo sapiens, UniProt Q15910); experiment: EZH2 assay (rPRC2, 3H SAM methyl transfer to biotinylated oligonucleosomes); assay type: biochemical; details: rPRC2, 2 nM EZH2, biotinylated oligonucleosomes, 0.2 μM 3H SAM; top concentration 80 μM
Chain of EZH2 (Q15910 whole entry): as the sequence (Q15910 whole entry Y641N) above, with N641Y counted along it
Chain of EZH2 (O75530 whole entry partner): as the sequence (O75530 whole entry partner) above
Chain of EZH2 (Q15022 whole entry partner): as the sequence (Q15022 whole entry partner) above
Procedure: as §1, §2

Compound: Cc1cc(C)c(CNC(=O)c2ccc(C(C)C)cc2C)c(=O)[nH]1 [Compound I-1, N-((2-hydroxy-4,6-dimethylpyridin-3-yl)methyl)-4-isopropyl-2-methylbenzamide]
- pIC50 (Y641N EZH2): 5.00 to 6.00
- pIC50 (EZH2): 5.00 to 6.00

Compound: Cc1cc(C)c(CNC(=O)c2ccn(C(C)C)c(=O)c2)c(=O)[nH]1 [Compound I-14, N-((2-hydroxy-4,6-dimethylpyridin-3-yl)methyl)-1-isopropyl-2-oxo-1,2-dihydropyridine-4-carboxamide]
- pIC50 (Y641N EZH2): < 4.10
- pIC50 (EZH2): 5.00 to 6.00

Compound: Cc1cc(C)c(CNC(=O)c2ccc3c(c2)OCC3C)c(=O)[nH]1 (stereo not drawn) [Compound I-12]
- pIC50 (Y641N EZH2): < 4.10
- pIC50 (EZH2): 5.00 to 6.00

Compound: Cc1cc(C)c(CNC(=O)c2ccc(C(C)C)cc2Cl)c(=O)[nH]1 [Compound I-2, 2-chloro-N-((2-hydroxy-4,6-dimethylpyridin-3-yl)methyl)-4-isopropyl benzamide]
- pIC50 (Y641N EZH2): 5.00 to 6.00
- pIC50 (EZH2): > 6.00

Compound: CCCC(C)c1ccc(C(=O)NCc2c(C)cc(C)[nH]c2=O)cc1 (stereo not drawn) [Compound I-10, N-((2-hydroxy-4,6-dimethylpyridin-3-yl)methyl)-4-(pentan-2-yl)benzamide]
- pIC50 (Y641N EZH2): 5.00 to 6.00
- pIC50 (EZH2): > 6.00

Compound: COC(C)(C)c1ccc(C(=O)NCc2c(C)cc(C)[nH]c2=O)cc1 [Compound I-3, N-((2-hydroxy-4,6-dimethylpyridin-3-yl)methyl)-4-(2-methoxypropan-2-yl)benzamide]
- pIC50 (Y641N EZH2): < 5.00
- pIC50 (EZH2): 5.00 to 6.00

Compound: Cc1cc(C)c(CNC(=O)c2ccc(C(C)(C)O)cc2)c(=O)[nH]1 [Compound I-20, N-((2-hydroxy-4,6-dimethylpyridin-3-yl)methyl)-4-(2-hydroxypropan-2-yl)benzamide]
- pIC50 (Y641N EZH2): < 4.10
- pIC50 (EZH2): < 5.00

Compound: CCOC(C)c1ccc(C(=O)NCc2c(C)cc(C)[nH]c2=O)cc1 (stereo not drawn) [Compound I-7, 4-(1-ethoxyethyl)-N-((2-hydroxy-4,6-dimethylpyridin-3-yl)methyl)benzamide]
- pIC50 (Y641N EZH2): 5.00 to 6.00
- pIC50 (EZH2): > 6.00

Compound: COC(C)c1ccc(C(=O)NCc2c(C)cc(C)[nH]c2=O)cc1 (stereo not drawn) [Compound I-4, N-((2-hydroxy-4,6-dimethylpyridin-3-yl)methyl)-4-(1-methoxyethyl)benzamide]
- pIC50 (Y641N EZH2): 5.00 to 6.00
- pIC50 (EZH2): > 6.00

Compound: Cc1cc(C)c(CNC(=O)c2ccc(C(C)C)c(Oc3ccccc3)c2)c(=O)[nH]1 [Compound I-11, N-((2-hydroxy-4,6-dimethylpyridin-3-yl)methyl)-4-isopropyl-3-phenoxy benzamide]
- pIC50 (Y641N EZH2): < 4.10
- pIC50 (EZH2): 5.00 to 6.00

Compound: CC(=O)NC(C)c1ccc(C(=O)NCc2c(C)cc(C)[nH]c2=O)cc1 (stereo not drawn) [Compound I-29, 4-(1-acetamidoethyl)-N-((2-hydroxy-4,6-dimethylpyridin-3-yl)methyl)benzamide]
- pIC50 (Y641N EZH2): < 4.10
- pIC50 (EZH2): < 4.10

Compound: Cc1cc(C)c(CNC(=O)c2ccc(COC(C)C)cc2)c(=O)[nH]1 [Compound I-6]
- pIC50 (Y641N EZH2): < 5.00
- pIC50 (EZH2): < 5.00

Compound: Cc1cc(C)c(CNC(=O)c2ccc(C(C)OCC(C)C)cc2)c(=O)[nH]1 (stereo not drawn) [Compound I-8, N-((2-hydroxy-4,6-dimethylpyridin-3-yl)methyl)-4-(1-isobutoxyethyl)benzamide]
- pIC50 (Y641N EZH2): 5.00 to 6.00
- pIC50 (EZH2): > 6.00

Compound: Cc1cc(C)c(CNC(=O)c2ccc(C(C)OC(C)C)cc2)c(=O)[nH]1 (stereo not drawn) [Compound I-5, N-((2-hydroxy-4,6-dimethylpyridin-3-yl)methyl)-4-(1-isopropoxyethyl)benzamide]
- pIC50 (Y641N EZH2): 5.00 to 6.00
- pIC50 (EZH2): > 6.00

Compound: Cc1cc(C)c(CNC(=O)c2ccc(C(C)C(C)C)cc2)c(=O)[nH]1 (stereo not drawn) [Compound I-9, N-((2-hydroxy-4,6-dimethylpyridin-3-yl)methyl)-4-(3-methylbutan-2-yl)benzamide]
- pIC50 (Y641N EZH2): 5.00 to 6.00
- pIC50 (EZH2): > 6.00
